The results in this text go back to PMC5129982, “Screen-identified selective inhibitor of lysine demethylase 5A blocks cancer cell growth and drug resistance” (Oncotarget, 2016).

As a reminder, the IC50 is the point on the concentration scale where inhibition reaches its midpoint. Read a low IC50 as greater potency.

Experiment [1] concerns H3K4 methylation in MCF10A cells. Put plainly: Western blot of global H3K4 methylation, MCF10A. It counts as cell-based, human. The following applies: 72 hr treatment. On the procedure: (§1) Cells were lysed as described previously. Histones were separated by centrifugation, resuspended in Laemmeli buffer, and sonicated. Protein concentration of cell lysates was measured by Bradford assay. Samples in Laemmeli buffer were boiled 10 minutes at 95°C and loaded onto 7% (whole cell lysates) or 18% (histones) SDS-PAGE gels. Membranes were blocked in 4% non-fat milk in Tris-buffered saline with 0.05% Tween (TBS-T) and incubated with primary antibodies in the same buffer or 5% bovine serum albumin in TBS-T overnight at 4°C. Membranes were incubated with secondary anti-rabbit or anti-mouse antibodies for one hour at room temperature. Blots were visualized by Thermo Scientific Pierce ECL Western Blotting Substrate (32106) or EMD Millipore Immobilon Western Chemiluminescent HRP Substrate (WBKLS0100) on film. Signal was quantified using ImageJ software.

The test system of the next experiment is MDA-MB-231 cells. Put plainly: WST-1 proliferation assay, MDA-MB-231. The conditions noted are these: MDA-MB-231, 5 days of treatment. It counts as cell-based, human. The method, then: (§2) WST-1 reagent from Roche Applied Sciences (11644807001) was used to measure cell number before drug addition and after 3 or 5 days of growth as described previously. Cells were seeded in 96-well plates at the following number of cells per well: HeLa (2000), MCF7 (2000), ZR-75-1 (1000), MCF10A (1000), MDA-MB-231(5000). DMSO was used at 0.1%. Relative absorbance was calculated by subtracting the average background (media only) signal, dividing by the average signal on day 0, and then dividing by the average day 5/day 0 ratio for the DMSO controls. Significance was calculated by unpaired, two-tailed student's t-test using GraphPad Prism 6.0 software.

For the next experiment, the system named is PC9 cells. Put plainly: Colony formation assay, PC9 (gefitinib tolerance). The format is cell-based, human. The method, then:
(§3) Cells were seeded in 6-well plates at low density: HeLa, MCF7, BT474, and PC9 cells at 1000, 2000, 2500, and 2000 cells/well respectively. Media containing the prescribed drugs or 0.1% DMSO was replaced every 3 days. Trastuzumab was used at 5 μg/ml. Gefitinib was used at 2 μM. YUKA1 was used at 50 or 100 μM. Doxycycline was used at 1 μg/ml for 3 days. After 7–42 days depending on the rate of cell growth, cells were fixed in 4% para-formaldehyde in phosphate-buffered saline for 10 minutes rocking at room temperature. They were incubated in 0.05% crystal violet in double-distilled water for 30 minutes rocking at room temperature, washed with water, and dried 24 hours before photographing. ColonyArea, a plugin for ImageJ software, was used for quantification. Unpaired, two-tailed student's t-test calculated using GraphPad Prism 6.0 software was used to determine significance.

For experiment [2], the system named is H3K4 methylation in MCF7 cells. Put plainly: Western blot of global H3K4 methylation, MCF7. The conditions noted are these: 48 hr. The format is cell-based, human. On the procedure: as §1
(In general: Immunoblotting shows a protein as a band on a membrane.)

A further experiment has as its system MCF7 cells. The experiment can be described thus: WST-1 proliferation assay, MCF7. The conditions noted are these: MCF7, after 3 days. It counts as cell-based, human. On the procedure: as §2
A general note: Tetrazolium assays rely on reduction of a dye to a coloured formazan, in cell work by metabolically active cells.

The next experiment relates to HeLa cells. Put plainly: Colony formation assay, HeLa. The conditions noted are these: two-week treatment, 50 or 100 μM. It counts as cell-based, human. The method, then: as §3
Experiment [3] deals with T1, FLAG-KDM6B (1043-1682) (JMJD3) (Homo sapiens, UniProt O15054).
T1 construct: FLAG-KDM6B (1043-1682) was purchased from BPS Bioscience (50115); FLAG (N); purchased BPS Bioscience 50115
T1 sequence (O15054 1043-1682 isoform O15054-1): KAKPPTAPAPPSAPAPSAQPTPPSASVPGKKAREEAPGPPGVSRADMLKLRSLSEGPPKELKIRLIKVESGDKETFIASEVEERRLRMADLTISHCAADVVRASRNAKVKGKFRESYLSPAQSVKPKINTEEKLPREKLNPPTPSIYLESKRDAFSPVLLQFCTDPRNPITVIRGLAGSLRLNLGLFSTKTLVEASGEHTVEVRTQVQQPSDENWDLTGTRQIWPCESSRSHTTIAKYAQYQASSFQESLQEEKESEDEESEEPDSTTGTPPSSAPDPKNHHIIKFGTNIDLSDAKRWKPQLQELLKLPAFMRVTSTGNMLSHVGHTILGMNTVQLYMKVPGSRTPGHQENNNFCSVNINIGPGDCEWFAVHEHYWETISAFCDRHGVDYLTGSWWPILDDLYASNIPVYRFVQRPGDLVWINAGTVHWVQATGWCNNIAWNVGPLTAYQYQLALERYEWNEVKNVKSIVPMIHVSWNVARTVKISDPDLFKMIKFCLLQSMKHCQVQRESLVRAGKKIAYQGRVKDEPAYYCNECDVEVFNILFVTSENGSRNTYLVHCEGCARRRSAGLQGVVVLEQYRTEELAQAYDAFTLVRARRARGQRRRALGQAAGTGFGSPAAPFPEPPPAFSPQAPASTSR
Put plainly: AlphaScreen KDM6B demethylation assay. It counts as biochemical. On the procedure:
(§4) Histone demethylase assays were performed as described previously, with the exception of all enzyme reactions containing 125 μM α-KG. Enzymes were used at the following approximate concentrations in validation experiments, chosen based on their activity in AlphaScreen assays: 19 nM FLAG-KDM5A, 15 nM FLAG-KDM5B, 6 nM FLAG-KDM5C, 29 nM His-FLAG-KDM6A, and 16 nM FLAG-KDM6B. 24 nM FLAG-KDM5A was used for Km determination experiments. Reactions were carried out for 1 hour, or were stopped by addition of 30 mM EDTA every 5 minutes for determining enzyme kinetics. Km values were calculated using the Michaelis-Menten non-linear regression analysis on GraphPad Prism 6.0 software. The concentration of DMSO in demethylation reactions was 0.05%. For reactions with catalase, catalase (Sigma C30) or an equal volume of dilution buffer was added to the peptide-containing buffer before addition of the demethylase. The final concentration of catalase in the reactions was 0.01 mg/ml.
(§5) The AlphaScreen general IgG (protein A) detection kit from PerkinElmer Life Sciences was used as described previously. The luminescence emission was recorded at 570 nm using the AlphaScreen optic module on a Pherastar (BMG Labtech) or Envision (PerkinElmer Life Sciences) microplate reader.
In general terms: In Alpha technology, singlet oxygen from a donor bead excites a nearby acceptor bead.

The target of a further experiment is T2, FLAG-KDM5B (Homo sapiens, UniProt Q9UGL1).
T2 construct: Full-length FLAG-KDM5B, FLAG-KDM5C, and His-FLAG-KDM6A production was detailed previously; FLAG (N); made in house
T2 sequence (Q9UGL1 whole entry): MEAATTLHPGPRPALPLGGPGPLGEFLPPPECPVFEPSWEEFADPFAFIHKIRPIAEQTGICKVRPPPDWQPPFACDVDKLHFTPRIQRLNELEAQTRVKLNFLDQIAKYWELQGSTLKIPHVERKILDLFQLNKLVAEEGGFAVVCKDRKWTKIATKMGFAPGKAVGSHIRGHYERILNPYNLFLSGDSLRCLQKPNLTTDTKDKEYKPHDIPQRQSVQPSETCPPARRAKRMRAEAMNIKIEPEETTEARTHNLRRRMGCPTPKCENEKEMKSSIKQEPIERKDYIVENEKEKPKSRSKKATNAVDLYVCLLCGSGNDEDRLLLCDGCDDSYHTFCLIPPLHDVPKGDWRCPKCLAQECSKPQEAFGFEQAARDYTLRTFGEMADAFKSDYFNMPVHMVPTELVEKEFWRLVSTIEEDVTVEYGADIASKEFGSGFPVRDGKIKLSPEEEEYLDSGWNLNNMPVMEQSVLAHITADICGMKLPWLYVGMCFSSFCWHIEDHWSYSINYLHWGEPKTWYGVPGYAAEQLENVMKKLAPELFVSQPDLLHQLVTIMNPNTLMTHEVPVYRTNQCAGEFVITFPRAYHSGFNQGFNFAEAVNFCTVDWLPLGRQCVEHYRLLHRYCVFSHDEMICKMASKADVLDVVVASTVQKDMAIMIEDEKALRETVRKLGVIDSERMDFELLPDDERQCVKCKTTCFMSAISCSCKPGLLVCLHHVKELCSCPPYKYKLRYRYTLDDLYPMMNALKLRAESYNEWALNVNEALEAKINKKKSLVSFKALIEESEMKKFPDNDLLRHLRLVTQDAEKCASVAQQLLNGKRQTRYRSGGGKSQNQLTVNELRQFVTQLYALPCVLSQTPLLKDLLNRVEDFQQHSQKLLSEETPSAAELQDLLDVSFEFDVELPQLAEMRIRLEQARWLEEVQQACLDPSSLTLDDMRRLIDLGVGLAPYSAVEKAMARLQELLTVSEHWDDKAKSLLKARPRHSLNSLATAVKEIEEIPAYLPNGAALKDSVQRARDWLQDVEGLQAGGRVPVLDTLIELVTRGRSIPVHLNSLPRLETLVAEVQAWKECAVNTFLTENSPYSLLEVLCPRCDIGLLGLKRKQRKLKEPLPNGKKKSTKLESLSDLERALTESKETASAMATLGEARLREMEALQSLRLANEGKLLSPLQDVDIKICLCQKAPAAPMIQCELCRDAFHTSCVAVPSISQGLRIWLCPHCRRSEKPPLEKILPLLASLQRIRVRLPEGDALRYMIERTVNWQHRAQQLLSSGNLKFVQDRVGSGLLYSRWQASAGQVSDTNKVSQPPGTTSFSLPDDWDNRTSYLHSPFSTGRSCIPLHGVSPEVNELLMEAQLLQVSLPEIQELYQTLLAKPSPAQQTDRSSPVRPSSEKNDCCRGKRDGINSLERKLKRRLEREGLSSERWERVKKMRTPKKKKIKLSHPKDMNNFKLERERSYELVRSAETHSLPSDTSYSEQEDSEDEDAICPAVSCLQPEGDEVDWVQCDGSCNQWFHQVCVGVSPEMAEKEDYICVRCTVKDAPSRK
The experiment can be described thus: AlphaScreen KDM5B demethylation assay. It counts as biochemical. On the procedure:
as §4, §5

A further experiment concerns BT474 cells. The experiment can be described thus: Colony formation assay, BT474 (trastuzumab tolerance). It counts as cell-based, human. The method, then:
as §3

The subject of experiment [4] is H3K4 methylation in HeLa cells. Put plainly: Western blot of global H3K4 methylation, HeLa. The format is cell-based, human. The following applies: for H3K4me3 Fold (H3K4me3/Total H3, normalized to DMSO): 48 hr. The method, then: as §1

Consider `C=CCOc1c(CNn2cnnc2S)cccc1OC` [YUKA1, 4-([2-(allyloxy)-3-methoxybenzyl]amino)-4H-1,2,4-triazole-3-thiol], for which the H3K4 methylation levels entry in experiment [1] is “did not affect H3K4 methylation levels”. For the same molecule, the “decrease in cell proliferation” value in the experiment with MDA-MB-231 cells was 10–15%. In addition, the “cell growth, compound alone” value in the experiment on PC9 cells (PC9, 7 days) is “not significantly affected”; with BT474 cells (BT474, 35 days), “not changed”. Further, in the experiment with PC9 cells (PC9, plus 2 μM gefitinib, 35 days), the “colony formation during long-term gefitinib treatment” value is “fewer YUKA1-treated cells formed colonies”. Moreover, the “H3K4me3 Fold (H3K4me3/Total H3, normalized to DMSO)” value in [2] (MCF7, 50 μM) is 0.8; in experiment [2] (MCF7, 100 μM) it was 0.8; in experiment [4] (HeLa, 50 μM), 3.0; in experiment [4] (HeLa, 100 μM), 3.2. Moreover, the proliferation entry in the experiment with MCF7 cells is “not affected”. Besides, the “number of colonies formed compared to DMSO” value with HeLa cells is recorded as “significantly reduced”. Besides, the IC50 (in experiment [3]; at FLAG-KDM5B (AlphaScreen)) was over 50 µM in each case. In addition, at FLAG-KDM5B (at 50 μM), the “activity against KDM5B” value is reported as “no activity”. Also, the “emergence of colonies under trastuzumab” value in the experiment on BT474 cells (BT474, plus 5 μg/ml trastuzumab, 42 days) is reported as “significantly less”. Also, the “H3K4me2 and H3K4me1 levels” value in [4] (HeLa) is “increased”. The “cell activity by global H3K4 methylation changes” value in experiment [4] (HeLa and MCF7 cells, western blot) is given as “cell-active”. The “global H3K4me3 levels” value in experiment [4] (HeLa, 48 hour treatment) is recorded as “dose-dependent increase”.
